Experimental findings from US9181255B2, “Fused heteroaromatic pyrrolidinones as SYK inhibitors” (Takeda Pharmaceutical Company Limited, priority 2009, dated 2015) are described below.

Each structure is given as a SMILES string. Counter-ions that a name gives are not always drawn.

The target of this assay is SYK (Homo sapiens, UniProt P43405). The assay is described as follows: SYK inhibition assay: SYK-mediated phosphorylation of FAM-labeled substrate (Caliper microfluidic). The format is biochemical. As to conditions: read-out: SYK Inhibition (pIC50) (converted).

In the case of `CN[C@H]1CCCC[C@H]1Nc1nc2c(c(Nc3cccc(C)c3)n1)C(=O)NC2` [Example 38, 2-((1R,2S)-2-(Methylamino)cyclohexylamino)-4-(m-tolylamino)-6,7-dihydro-5H-pyrrolo[3,4-d]pyrimidin-5-one], the IC50 was 631 nM.
With `Cn1cc(-c2nc(N[C@@H]3CCCC[C@@H]3N)c(F)c3c2C(=O)NC3(C)C)cn1` [Example 120, 6-((1R,2S)-2-Aminocyclohexylamino)-7-fluoro-1,1-dimethyl-4-(1-methyl-1H-pyrazol-4-yl)-1H-pyrrolo[3,4-c]pyridin-3(2H)-one], the IC50 was 251 nM.
In the case of `Cn1cc(-c2nc(N[C@@H]3CCCC[C@@H]3N)nc3c2C(=O)NC3)cn1` [Example 14, 2-((1R,2S)-2-Aminocyclohexylamino)-4-(1-methyl-1H-pyrazol-4-yl)-6,7-dihydro-5H-pyrrolo[3,4-d]pyrimidin-5-one], the IC50 is 126 nM.
Consider `CCCn1cc(-c2nc(N[C@@H]3CCCC[C@@H]3N)nc3c2C(=O)NC3)cn1` [Example 21, 2-((1R,2S)-2-Aminocyclohexylamino)-4-(1-propyl-1H-pyrazol-4-yl)-6,7-dihydro-5H-pyrrolo[3,4-c]pyrimidin-5-one], for which the IC50 was 501 nM.
The figure for `Cc1cccc(Nc2nc(NCC(N)=O)nc3c2C(=O)NC3)c1` [Example 42, 2-(5-oxo-4-(m-tolylamino)-6,7-dihydro-5H-pyrrolo[3,4-d]pyrimidin-2-ylamino)acetamide] is 158 nM.
The figure for `Cn1cc(-c2nc(N3CC[C@H](N)C3)c(F)c3c2C(=O)NC3)cn1` [Example 95, (S)-6-(3-Aminopyrrolidin-1-yl)-7-fluoro-4-(1-methyl-1H-pyrazol-4-yl)-1H-pyrrolo[3,4-c]pyridin-3(2H)-one] is 3980 nM; for `N[C@H]1CCCC[C@H]1Nc1nc(-c2cnc3ccccn23)c2c(c1F)CNC2=O` [Example 51, 6-((1R,2S)-2-aminocyclohexylamino)-7-fluoro-4-(imidazo[1,2-a]pyridin-3-yl)-1H-pyrrolo[3,4-c]pyridin-3(2H)-one] it is 63.1 nM; for `CS(=O)(=O)c1cccc(Nc2nc(N[C@@H]3CCC[C@@H]3N)cc3c2C(=O)NC3)c1` [Example 34, 6-((1R,2S)-2-Aminocyclopentylamino)-4-(3-(methylsulfonyl)phenylamino)-1H-pyrrolo[3,4-c]pyridin-3(2H)-one (HCl salt)] it is 316 nM.
The figure for `N[C@H]1COCC[C@H]1Nc1nc(-c2coc3ccccc23)c2c(c1F)CNC2=O` [Example 94, 6-((3R,4R)-3-Aminotetrahydro-2H-pyran-4-ylamino)-4-(benzofuran-3-yl)-7-fluoro-1H-pyrrolo[3,4-c]pyridin-3(2H)-one] is 3.16 nM; for `Cc1cccc(Nc2nc(CCCN)nc3c2C(=O)NC3)c1` [Example 49, 2-(3-Aminopropyl)-4-(m-tolylamino)-6,7-dihydro-5H-pyrrolo[3,4-d]pyrimidin-5-one] it is greater than 20000 nM; for `N[C@H]1CCCC[C@H]1Nc1nc2c(c(Nc3cccc(F)c3)n1)C(=O)NC2` [Example 2, 2-((1R,2S)-2-Aminocyclohexylamino)-4-(3-fluorophenylamino)-6,7-dihydro-5H-pyrrolo[3,4-c]pyrimidin-5-one] it is 126 nM.
With `Cc1csc(-c2nc(N[C@@H]3CCOC[C@@H]3N)c(F)c3c2C(=O)NC3)c1` [Example 104, 6-((3R,4R)-3-Aminotetrahydro-2H-pyran-4-ylamino)-7-fluoro-4-(4-methylthiophen-2-yl)-1H-pyrrolo[3,4-c]pyridin-3(2H)-one], the IC50 was 2 nM.
In the case of `Cc1cccc(Nc2nc(N[C@@H]3CCCC(F)(F)[C@@H]3N)cc3c2C(=O)NC3)c1` (relative stereo) [Example 83, 6-(cis-2-Amino-3,3-difluorocyclohexylamino)-4-(m-tolylamino)-1H-pyrrolo[3,4-c]pyridin-3(2H)-one], the IC50 was 251 nM.
`Cc1cccc(Nc2nc(NC3CCCCC3)nc3c2C(=O)NC3)c1` [Example 10, 2-(Cyclohexylamino)-4-(m-tolylamino)-6,7-dihydro-5H-pyrrolo[3,4-d]pyrimidin-5-one]: the IC50 is greater than 20000 nM.
As for `Cc1cccc(Nc2nc(N[C@@H]3CCCC[C@@H]3N)c(I)c3c2C(=O)NC3)c1` [Example 81, 6-((1R,2S)-2-Aminocyclohexylamino)-7-iodo-4-(m-tolylamino)-1H-pyrrolo[3,4-c]pyridin-3(2H)-one], the IC50 is 3.16 nM.
The figure for `Cc1csc(-c2nc(N[C@@H]3CCCC[C@@H]3N)c(F)c3c2C(=O)NC3)c1` [Example 105, 6-((1R,2S)-2-Aminocyclohexylamino)-7-fluoro-4-(4-methylthiophen-2-yl)-1H-pyrrolo[3,4-c]pyridin-3(2H)-one] is 1 nM; for `Cn1cc(-c2nc(N[C@@H]3CCCC[C@@H]3N)c(Cl)c3c2C(=O)NC3)cn1` [Example 29, 6-((1R,2S)-2-Aminocyclohexylamino)-7-chloro-4-(1-methyl-1H-pyrazol-4-yl)-1H-pyrrolo[3,4-c]pyridin-3(2H)-one] it is 3.16 nM; for `Cc1c(N[C@@H]2CCCC[C@@H]2N)nc(-c2cnn(C)c2)c2c1CNC2=O` [Example 90, 6-((1R,2S)-2-Aminocyclohexylamino)-7-methyl-4-(1-methyl-1H-pyrazol-4-yl)-1H-pyrrolo[3,4-c]pyridin-3(2H)-one] it is 10 nM.
On to `COC[C@H](N)CNc1cc2c(c(Nc3cccc(C)c3)n1)C(=O)NC2` [Example 77, (R)-6-(2-Amino-3-methoxypropylamino)-4-(m-tolylamino)-1H-pyrrolo[3,4-c]pyridin-3(2H)-one], for which the IC50 was 31.6 nM.
The figure for `N[C@H]1COCC[C@H]1Nc1nc(-c2cncs2)c2c(c1F)CNC2=O` [Example 128, 6-((3R,4R)-3-Aminotetrahydro-2H-pyran-4-ylamino)-7-fluoro-4-(thiazol-5-yl)-1H-pyrrolo[3,4-c]pyridin-3(2H)-one] is 20 nM; for `N[C@H]1COCC[C@H]1Nc1nc(-c2cccs2)c2c(c1F)CNC2=O` [Example 127, 6-((3R,4R)-3-Aminotetrahydro-2H-pyran-4-ylamino)-7-fluoro-4-(thiophen-2-yl)-1H-pyrrolo[3,4-c]pyridin-3(2H)-one] it is 6.31 nM.
Turning to `Cn1cc(-c2nc(N[C@@H]3CCCC[C@@H]3N)c(Br)c3c2C(=O)NC3)cn1` [Example 99, 6-((1R,2S)-2-Aminocyclohexylamino)-7-bromo-4-(1-methyl-1H-pyrazol-4-yl)-1H-pyrrolo[3,4-c]pyridin-3(2H)-one], the IC50 was 3.16 nM.
With `Cc1cccc(Nc2nc(N[C@@H]3CCCC[C@@H]3N)c(-c3ccnn3C)c3c2C(=O)NC3)c1` [Example 84, 6-((1R,2S)-2-Aminocyclohexylamino)-7-(1-methyl-1H-pyrazol-5-yl)-4-(m-tolylamino)-1H-pyrrolo[3,4-c]pyridin-3(2H)-one], the IC50 is 20 nM.
The figure for `Cn1ccc(-c2nc(N[C@@H]3CCCC[C@@H]3N)c(F)c3c2C(=O)NC3)n1` [Example 121] is 3980 nM.
Consider `Cc1ccc(-c2nc(N[C@@H]3CCCC[C@@H]3N)c(F)c3c2C(=O)NC3)s1` [Example 108, 6-((1R,2S)-2-Aminocyclohexylamino)-7-fluoro-4-(5-methylthiophen-2-yl)-1H-pyrrolo[3,4-c]pyridin-3(2H)-one], for which the IC50 is 2.51 nM.
The figure for `CCn1cc(-c2nc(N[C@@H]3CCCC[C@@H]3N)cc3c2C(=O)NC3)cn1` [Example 59, 6-((1R,2S)-2-Aminocyclohexylamino)-4-(1-ethyl-1H-pyrazol-4-yl)-1H-pyrrolo[3,4-c]pyridin-3(2H)-one] is 79.4 nM.
With `N[C@@H]1[C@H](Nc2nc(-c3cnn(C(F)F)c3)c3c(c2F)CNC3=O)CCCC1(F)F` (relative stereo) [Example 68, 6-(cis-2-Amino-3,3-difluorocyclohexylamino)-4-(1-(difluoromethyl)-1H-pyrazol-4-yl)-7-fluoro-1H-pyrrolo[3,4-c]pyridin-3(2H)-one], the IC50 is 100 nM.
Regarding `N[C@H]1CCCC[C@H]1Nc1nc2c(c(-c3csc4ccccc34)n1)C(=O)NC2` [Example 17, 2-((1R,2S)-2-Aminocyclohexylamino)-4-(benzo[b]thiophen-3-yl)-6,7-dihydro-5H-pyrrolo[3,4-c]pyrimidin-5-one], the IC50 was 39.8 nM.
Consider `N[C@H]1CCCC[C@H]1Nc1nc2c(c(Nc3cccc(Cl)c3)n1)C(=O)NC2` [Example 3, 2-((1R,2S)-2-Aminocyclohexylamino)-4-(3-chlorophenylamino)-6,7-dihydro-5H-pyrrolo[3,4-d]pyrimidin-5-one], for which the IC50 is 25.1 nM.
On to `Cc1cccc(Nc2nc(N[C@@H]3CCCC[C@@H]3N)c(-c3ccccc3)c3c2C(=O)NC3)c1` [Example 87], for which the IC50 is 63.1 nM.
The figure for `N[C@H]1CCCC[C@H]1Nc1cc2c(c(Nc3ccc4cn[nH]c4c3)n1)C(=O)NC2` [Example 23, 4-(1H-Indazol-6-ylamino)-6-((1R,2S)-2-aminocyclohexylamino)-1H-pyrrolo[3,4-c]pyridin-3(2H)-one] is 2 nM; for `Cc1cc(-c2nc(N[C@@H]3CCOC[C@@H]3N)c(F)c3c2C(=O)NC3)sn1` [Example 132, 6-((3R,4R)-3-Aminotetrahydro-2H-pyran-4-ylamino)-7-fluoro-4-(3-methylisothiazol-5-yl)-1H-pyrrolo[3,4-c]pyridin-3(2H)-one] it is 3.98 nM; for `Cc1ccc(-c2nc(N[C@H](CC(C)C)C(N)=O)c(F)c3c2C(=O)NC3)o1` [Example 115, (R)-2-(7-Fluoro-4-(5-methylfuran-2-yl)-3-oxo-2,3-dihydro-1H-pyrrolo[3,4-c]pyridin-6-ylamino)-4-methylpentanamide] it is 316 nM.
For `Cn1cc(-c2nc(N[C@@H]3CCCC(F)(F)[C@@H]3N)c(F)c3c2C(=O)NC3)cn1` (relative stereo) [Example 67, 6-(cis-2-Amino-3,3-difluorocyclohexylamino)-7-fluoro-4-(1-methyl-1H-pyrazol-4-yl)-1H-pyrrolo[3,4-c]pyridin-3(2H)-one], the IC50 is 39.8 nM.
